“Also recorded” adds a separate entry of the source. No end group written: not given here.
Columns and labels:
[1] = test system: GST-COMMD4; experiment: FLAG immunoprecipitation, FLAG-H2B constructs with COMMD4; format: binding; settings: FLAG-H2B immunoprecipitated from HEK293T cells, anti-FLAG M2 Dynabeads, 4 °C, immunoblot for GST-COMMD4 and FLAG
Method: (§1) For siRNA transfections, cells were transfected with negative control or COMMD4 siRNA #2 (CCAUGUCCCUCUCAGCAGA[dT][dT] MISSION® siRNA, Sigma-Aldrich) using RNAiMax (Life Technologies) as previously described and samples were analysed 48 to 72 h post-transfection. The H2B wild-type (FLAG-H2BWT) and mutant (FLAG-H2BMUT1) expression constructs were generated with the 10-amino acid peptide and the corresponding mutant cloned into the expression vector pCDNA3.1/(+)-N-DYK containing an N-terminal FLAG tag and a C-terminal nuclear localisation signal (AAKRVKLDS) (GenScript). A70K FLAG-COMMD4 expression construct was generated by mutating the corresponding COMMD4-FLAG construct to harbour an A70K mutation (GenScript). Cells were mock-transfected, or transfected with FLAG-H2BWT/FLAG-H2BMUT1, or COMMD4-FLAG/A70K with FuGENE® HD (Promega) using the manufacturer’s protocol and analysed 24 h post-transfection.
Co-immunoprecipitations were performed as previously summarised, using ice-cold NP40 buffer. Assays for co-immunoprecipitations were performed at 4 °C from HEK293T, transiently expressing the FLAG-H2B WT or MUT plasmid. Proteins were captured using anti-FLAG M2 Dynabeads (ThermoFisher) and washed three times in NP40 buffer prior to analysis. […]

[2] = test system: H460, H1299 and CRL5889 NSCLC cells; experiment: Clonogenic cell viability after IR, NSCLC cells; format: cell-based; settings: varying IR doses, 7–10 days recovery, three independent experiments, compared to control siRNA or FLAG-H2BMUT1/mock
Method: (§2) H1299, CRL5889 and H460 cells were cultured in Roswell Park Memorial Institute (RPMI) 1640 medium (Life Technologies) containing 10% foetal bovine serum (Thermo Fisher Scientific). Human bronchial epithelial cells (HBEC3-KT) were maintained in keratinocyte serum-free medium supplemented with epidermal growth factor and bovine pituitary extract (Life Technologies). The histology features and origin of all cell lines used have been previously described. Cell lines were authenticated using STR profiling. Cells were grown in a humidified incubator at 37 °C/5% CO2 atmosphere. All cell lines were verified to be free of mycoplasma contamination.
Irradiations were done at room temperature using a ^137Cs source (Gammacell 40 Exactor [MDS Nordion]; dose rate 1.1 Gy/min). Phalloidin-Atto 488 was purchased from Sigma-Aldrich and Hoechst 33342 was purchased from Thermo Fisher Scientific.
For siRNA transfections, cells were transfected with negative control or COMMD4 siRNA #2 (CCAUGUCCCUCUCAGCAGA[dT][dT] MISSION® siRNA, Sigma-Aldrich) using RNAiMax (Life Technologies) as previously described and samples were analysed 48 to 72 h post-transfection. […] Cells were mock-transfected, or transfected with FLAG-H2BWT/FLAG-H2BMUT1, or COMMD4-FLAG/A70K with FuGENE® HD (Promega) using the manufacturer’s protocol and analysed 24 h post-transfection. […]

[3] = test system: H460, H1299 and CRL5889 NSCLC cells; experiment: CellTiter-Glo 2.0 luminescent cell viability after IR, NSCLC cells; format: cell-based; settings: CellTiter-Glo 2.0, 48 h post-irradiation, three independent experiments
Method: as §2
(§3) Irradiations were done at room temperature using a ^137Cs source (Gammacell 40 Exactor [MDS Nordion]; dose rate 1.1 Gy/min). […]
(§4) For siRNA transfections, cells were transfected with negative control or COMMD4 siRNA #2 (CCAUGUCCCUCUCAGCAGA[dT][dT] MISSION® siRNA, Sigma-Aldrich) using RNAiMax (Life Technologies) as previously described and samples were analysed 48 to 72 h post-transfection. […] Cells were mock-transfected, or transfected with FLAG-H2BWT/FLAG-H2BMUT1, or COMMD4-FLAG/A70K with FuGENE® HD (Promega) using the manufacturer’s protocol and analysed 24 h post-transfection.
(§5) A CellTiter-Glo 2.0 Luminescent assay (Promega Corporation) was carried out as previously described. […] Luminescence was measured using a PHERAstar FSX detection system (BMG Labtech). […]

[4] = test system: HBEC3-KT cells; experiment: CellTiter-Glo 2.0 luminescent cell viability after IR, HBEC3-KT cells; format: cell-based, Human; settings: CellTiter-Glo 2.0, 48 h post-irradiation, three independent experiments
Method: as §2, §3, §4, §5

[5] = test system: NSCLC cells; experiment: Mitotic catastrophe (emerin and phalloidin staining), NSCLC cells; format: cell-based; settings: 100 cells counted
Method: as §1, with “A70K FLAG-COMMD4 expression construct was generated by mutating the corresponding COMMD4-FLAG construct to harbour an A70K mutation (GenScript).” left out
(§6) NSCLC cells were grown in 96-well plates as above and stained with anti-emerin antibody and phalloidin. Mitotic catastrophe was scored as previous. A minimum of 100 cells for each experimental condition were assessed to determine the percentage of aberrant nuclei.
(§7) As previously determined, in this study, we used two markers to determine mitotic catastrophe: emerin staining of the nuclear envelope and phalloidin staining of the F-actin cytoskeleton. […] We subsequently measured apoptosis by staining for Annexin V and propidium iodide via flow cytometry in FLAG-H2B WT, FLAG-H2BMUT1 and mock-transfected control and NSCLC cells (Fig. 5c, d). […]

[6] = test system: HBEC3-KT cells; experiment: Mitotic catastrophe (emerin and phalloidin staining), HBEC3-KT cells; format: cell-based, Human; settings: 100 cells counted
Method: as §1, with “A70K FLAG-COMMD4 expression construct was generated by mutating the corresponding COMMD4-FLAG construct to harbour an A70K mutation (GenScript).” left out
as §6, §7

[7] = test system: H460, H1299 and CRL5889 NSCLC cells; experiment: Annexin V-FITC / propidium iodide apoptosis, NSCLC cells; format: cell-based; settings: flow cytometry, three independent experiments
Method: as §1, with “A70K FLAG-COMMD4 expression construct was generated by mutating the corresponding COMMD4-FLAG construct to harbour an A70K mutation (GenScript).” left out
The Annexin V-FITC apoptosis kit (United Bioresearch, ALX-850-020-K101, Enzo Life Sciences, Farmingdale, NY, USA) was used to measure viable and apoptotic cells, as previously described. […] CytExpert 2.0 software was used for data acquisition and analysed using the FlowJo v10 software.
Fig. 5 Induction of mitotic catastrophe and apoptosis in NSCLC cells. a Emerin and phalloidin staining respectively in three NSCLC and control HBEC3-KT cells. […] Asterix (*) denotes *P < 0.05 and ** P < 0.005 from 100 cells counted. […] The live cells were stained with Annexin V-FITC and propidium iodide and analysed by flow cytometer. […]

“FLAG-H2BWT: 10-amino acid peptide cloned into expression vector containing an N-terminal FLAG tag and a C-terminal nuclear localisation signal ({FLAG}-SFVNDIFERIAAKRVKLDS)” was tested, and the “binding of overexpressed FLAG-H2B construct to COMMD4” value [1] was “interacted with COMMD4”, the “sensitivity to ionising radiation (clonogenic viability)” value [2] was “resulted in a similar phenotype to COMMD4 siRNA depletion, albeit less pronounced, where hypersensitivity to IR was observed relative to cells expressing the mutant peptide (FLAG-H2BMUT1)” and the “sensitivity to ionising radiation (luminescent viability)” value [3] was “hypersensitive to IR compared to FLAG-H2BMUT1 and mock-transfected cells”. The “sensitivity to ionising radiation (luminescent viability)” value [4] was “not hypersensitive”, the “aberrant nuclei / mitotic catastrophe” value [5] was “significantly more aberrant nuclei, indicative of mitotic catastrophe induction, relative to FLAG-H2BMUT1; also recorded: significantly more mitotic catastrophe than control cells” and the “aberrant nuclei / mitotic catastrophe” value [6] was “also underwent mitotic catastrophe, but to a lesser extent than the NSCLC cell lines”. For the same substance, the “early and late apoptosis” value [7] was “significantly increased early and late apoptosis compared to FLAG-H2BMUT1 and mock-transfected cells”.

Source: PMC10703884, “Targeting the COMMD4–H2B protein complex in lung cancer” (British Journal of Cancer, 2023)
